# Peptide text beside a SMILES is read from it. * marks the point of attachment. Cbz = O=C(OCc1ccccc1)*
# What was measured:
# p27^Kip1 = experiment: Western blot of p27^Kip1 protein; type: cell-based, human; conditions: MG132 100 nM added to cells over-expressing Ect2
# Experimental: Cell Culture and Transfection. A172, U87, U118, U373 and T98G human glioma cells (ATCC, Manassas, Va.) were cultured in Dulbecco's modified Eagle's medium (DMEM) supplemented with 10% fetal bovine serum (Hyclone, South Logan, Utah). Cells were synchronised at quiescence through serum starvation. Full-length human Ect2 was cloned into the expression vector pXJ41 using EcoRI and BamHI digestion. The Ect2 truncation mutants ΔN-Ect2-DH/PH/C, ΔN-Ect2-DH/PH and ΔN-Ect2-DH were cloned in pCTV3-HA3. p27-PF, p27-ApaI, pGVB2 were gifts. For transient expression, cells were seeded at 40% confluence and transfected with 1.5 μg of DNA using Polyfect transfection reagent (Qiagen GmBH, Hilden, Germany). For knockdown experiments, Ect2 siRNAs were transfected into cells using SilentFect (Bio-Rad, Hercules, Calif.). RhoA inhibitor C3 exoenzyme (Upstate Biotech, Billerica, Mass.) was introduced into cells using Lipofectamine2000 (Invitrogen, Carlsbad, Calif.) at a concentration of 10 mg/ml. Cells were treated with the proteasome inhibitor MG132 (Calbiochem, San Diego, Calif.) at a concentration of 100 nM.
# Western blot analysis. Whole cell lysates were prepared at the indicated time points following treatment. […] Protein quantity was determined by the Bradford Assay Reagent (Bio-Rad). […]
# U118 glioma cells = experiment: Warburg effect: Western blot of AMPK phosphorylation, mTOR activity and ECT2 expression; type: cell-based, human
# Experimental: Western blot analysis. Whole cell lysates were prepared at the indicated time points following treatment. Cells were lysed in 0.1% SDS buffer (50 mM Tris-HCl, pH7.5, 150 mM NaCl, 1% NP-40, 1% sodium deoxycholate, 0.1 mM sodium vanadate, 50 mM b-glycerophosphate, 1 mM NaF) supplemented with protease inhibitor cocktail (Roche, Basel, Switzerland). Lysates were clarified by centrifugation at 13,000 rpm for 20 min at 4° C. Protein quantity was determined by the Bradford Assay Reagent (Bio-Rad). Typically, 50 μg of protein was resolved on either 6% or 12% SDS-polyacrylamide and transferred onto PVDF membranes (Millipore, Billerica, Mass.). Membranes were probed using antibodies specific to Ect2 and other proteins listed in the attached document. Protein bands were visualized by chemiluminescence using the ECL Western blotting system (Amersham, Arlington Heights, Ill.) according to manufacturer's protocol. Actin was used as loading control.
# The use of ECT2 inhibitor sensitizes glioma cell stochemotherapy treatment such as with Temozolomide (FIG. 14). ECT2 regulation by RTK/mTOR pathway through EGFR inhibition (FIG. 18) with Erlotinib (10 uM) (FIG. 18A), Akt inhibition with API2 (10 uM), and mTOR inhibition with Rapamycin (50 nM) (FIG. 18B) Warburg effect and ECT2 regulation was examined in U118 glioma cells. The cells were treated with glycolysis or oxidative phosphorylation inhibitors [2-Deoxy-glucose (2DG) and oligomycin, respectively]. Filipin III was used to permeabilise mitochondria to provide exogenous source of pyruvate for the Tricarboxylic acid (TCA) cycle. Cellular energy level was measured by Western blot analysis of AMPK phosphorylation.
SMILES,Ect2-mediated suppression of p27^Kip1 (p27^Kip1),ECT2 expression (U118 glioma cells),mTOR activity (U118 glioma cells),phosphorylated AMPK (U118 glioma cells; glycolysis inhibition)
CC(C)C[C@@H](C=O)NC(=O)[C@H](CC(C)C)NC(=O)[C@H](CC(C)C)NC(=O)OCc1ccccc1 [MG132] (Cbz-Leu-Leu-Leu-aldehyde),completely abrogated,–,–,–
CC[C@H]1/C=C/C=C/C[C@@H](C)[C@H](O)[C@@](C)(O)C(=O)[C@@H](C)[C@H](O)[C@@H](C)C(=O)[C@@H](C)[C@H](O)[C@@H](C)/C=C/C(=O)O[C@@H]2[C@H](C)[C@H](CC1)O[C@]1(CC[C@H](C)[C@H](C[C@@H](C)O)O1)[C@H]2C [oligomycin],–,did not affect,did not affect,–
"O=CC[C@@H](O)[C@H](O)[C@H](O)CO [2DG, 2-Deoxy-D-glucose]",–,reduced,significantly lower,higher level

# From US20120231007A1, “MODULATORS OF CELL CYCLE PROGRESSION” (SINGAPORE HEALTH SERVICES PTE. LTD., priority 2009, published 2012)
